*1 amine or outer side, *2 acyl side, *3 side chain or, on linkers, in order; H or OH if unused. Where a SMILES comes first, the peptide text is derived from it. Bridges are numbered along the chain shown (N, C = ends). [ ]: non-standard residue; d: D form. The star is where a group is joined. pTerphenylCO(4''-OnC5H11) = CCCCCOc1ccc(-c2ccc(-c3ccc(C(=O)*)cc3)cc2)cc1; Orn(4R-OH,5R-OH) = O=C([C@H](C[C@@H](O)[C@@H](O)N[*:3])N[*:1])[*:2]; hTyr(3S-OH,4S-OH) = N[C@H](C(=O)O)[C@H](O)[C@@H](O)c1ccc(O)cc1; Pro(3S-OH,4S-Me) = C[C@H]1CN[C@H](C(=O)O)[C@H]1O; Hyp = O=C(O)[C@@H]1C[C@@H](O)CN1

Chain of BTK (Q06187 402-655 limits assumed): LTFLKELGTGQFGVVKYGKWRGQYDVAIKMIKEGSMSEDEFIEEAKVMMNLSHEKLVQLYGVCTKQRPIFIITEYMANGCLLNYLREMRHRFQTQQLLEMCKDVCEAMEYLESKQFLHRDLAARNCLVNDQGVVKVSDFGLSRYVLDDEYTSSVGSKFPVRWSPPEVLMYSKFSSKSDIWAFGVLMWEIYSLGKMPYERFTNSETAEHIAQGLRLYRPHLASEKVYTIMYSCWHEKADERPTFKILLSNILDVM

One assay concerns the target BTK (Homo sapiens, UniProt Q06187). Kind of assay: biochemical. To be noted: read-out: BTK inhibition (%).
A word on the inhibition: it is the drop in the measured response relative to a control, in per cent. For the compound `CC(C)C(Br)C(=O)NC(N)=O` (stereo not drawn) [PCM-0216023], the inhibition at 10 µM was determined as 12.4%.

The assay is the same for the next values; noted with them: read-out: BTK inhibition (%), 0.75 uM BTK, […] probe 3l, 15 min preincubation.
Turning to `OC[C@H]1OC(O)[C@H](O)[C@@H](O)[C@H]1O` (stereo partly drawn) [PCM-0215038], the inhibition at 10 µM was -23.3%.

In the case of `CCCCCOc1ccc(-c2ccc(-c3ccc(C(=O)N[C@H]4C[C@@H](O)[C@@H](O)NC(=O)[C@@H]5[C@@H](O)[C@@H](C)CN5C(=O)[C@H]([C@@H](C)O)NC(=O)[C@H]([C@H](O)[C@@H](O)c5ccc(O)cc5)NC(=O)[C@@H]5C[C@@H](O)CN5C(=O)[C@H]([C@@H](C)O)NC4=O)cc3)cc2)cc1` [PCM-0214798] ({pTerphenylCO(4''-OnC5H11)}-[Orn(4R-OH,5R-OH)]T[Hyp][hTyr(3S-OH,4S-OH)]T[Pro(3S-OH,4S-Me)]; lactam 1-C), the inhibition at 10 µM stood at 122%.

Take `CCCCC1C(=O)N(c2ccccc2)N(c2ccccc2)C1=O` [PCM-0065475]: the inhibition at 10 µM was -17.2%.

Take `CCCC[N+]1(C)[C@@H]2CC(OC(=O)[C@H](CO)c3ccccc3)C[C@H]1[C@@H]1O[C@@H]12` (stereo partly drawn) [PCM-0086491]: the inhibition at 10 µM is -17.9%.

`NCCCC[C@@H]1NC(=O)[C@@H](Cc2ccc(O)cc2)NC(=O)[C@H](CC(=O)O)NC(=O)CNC(=O)[C@H](CCCN=C(N)N)NC1=O` [PCM-0215492]: the inhibition at 10 µM is -10%.

In the case of `O=c1cc(N2CCOCC2)oc2c1ccc1ccccc12` [PCM-0215173], the inhibition at 10 µM was -17.9%.

For the compound `C=CC(=O)Nc1cccc(Oc2nc(Nc3ccc(N4CCN(C)CC4)cc3)nc3ccsc23)c1` [PCM-0215661], the inhibition at 10 µM amounted to 105%.

As to `O=C1c2ccccc2C(=O)c2c1ccc(O)c2O` [PCM-0095289], the inhibition at 10 µM amounted to 49.8%.

Take `Cc1ccc(C(=O)N(CCCN)[C@@H](c2oc3cc(Cl)ccc3c(=O)c2Cc2ccccc2)C(C)C)cc1` [PCM-0095226]: the inhibition at 10 µM was -2.3%.

With `C[C@]1(O)C[C@@H](O)[C@@H]2C=CO[C@@H](O[C@@H]3O[C@H](CO)[C@@H](O)[C@H](O)[C@H]3O)[C@@H]21` [PCM-0216407], the inhibition at 10 µM is -5.4%.

On to `CN(C)CCC[C@@]1(c2ccc(F)cc2)OCc2cc(C#N)ccc21` [PCM-0064474], for which the inhibition at 10 µM is -6.2%.

Regarding `O=S1(=O)CCN(CN2CCS(=O)(=O)NC2)CN1` [PCM-0215138], the inhibition at 10 µM came out at 0%.

Turning to `CCC(=O)N1CCN(c2ccc(-n3c(=O)ccc4cnc5ccc(-c6cnc7ccccc7c6)cc5c43)cc2C(F)(F)F)CC1` [PCM-0095455], the inhibition at 10 µM was -25.5%.

Turning to `CC(Nc1nc(N2CCCC2)nc2ccccc12)c1ccccc1` (stereo not drawn) [PCM-0215774], the inhibition at 10 µM was -23.2%.

`O=Cc1ccc(O[C@@H]2O[C@H](CO)[C@@H](O)[C@@H](O)[C@H]2O)cc1` [PCM-0215018]: the inhibition at 10 µM was determined as 7%.

Turning to `O=C(O)c1ccc(NC(=O)[C@H](Cc2ccc(O)cc2)NC(=O)c2ccccc2)cc1` [PCM-0215250], the inhibition at 10 µM was -10.1%.

Turning to `CCn1c(=O)c2c(nc(/C=C/c3ccc(OC)c(OC)c3)n2C)n(CC)c1=O` [PCM-0095373], the inhibition at 10 µM is -25.7%.

Turning to `O=C(O)P(=O)(O)O` [PCM-0090233], the inhibition at 10 µM amounted to 1.6%.

On to `CCOC(=O)c1cccc(N)c1` [PCM-0214922], for which the inhibition at 10 µM is -2.3%.

Regarding `Clc1ccc(C(c2c[nH]c3ccccc23)c2c[nH]c3ccccc23)cc1` [PCM-0215640], the inhibition at 10 µM is 71.7%.

Regarding `Cc1cc(C)c(CN2CCc3c(Cl)cc(-c4c(C)noc4C)c(Cl)c3C2=O)c(=O)[nH]1` [PCM-0215872], the inhibition at 10 µM is -8.5%.

On to `CCOC(=O)c1cc2ccccc2oc1=O` [PCM-0216280], for which the inhibition at 10 µM is -16.2%.

For `Oc1ccc(Nc2nc(-c3ccc(Cl)cc3)cs2)cc1` [PCM-0095692], the inhibition at 10 µM amounted to 84.8%.

As to `O=C(O)c1ccc(Br)c(O)c1` [PCM-0216168], the inhibition at 10 µM is -23.9%.

As for `Cc1ccc(CN(CC(O)COc2cccc3[nH]ccc23)C(C)(C)C)cc1` (stereo not drawn) [PCM-0216011], the inhibition at 10 µM was 6.9%.

On to `CCn1c(=O)c(-c2ccc(Cl)cc2Cl)cc2cnc(Nc3ccc(N4CCNCC4)c(F)c3)nc21` [PCM-0215684], for which the inhibition at 10 µM turned out to be 87.6%.

In the case of `CC[C@@H](C(N)=O)N1CCCC1=O` [PCM-0064838], the inhibition at 10 µM worked out at 15.6%.

Take `CCNC(=O)Nc1ccc(-c2nc3c(c(N4CCOC[C@@H]4C)n2)CCN(C2COC2)C3)cc1` [PCM-0095629]: the inhibition at 10 µM was 3.4%.

Consider `Cc1c[nH]c(/C=C2\C(=O)Nc3ccccc32)c1CCC(=O)O` [PCM-0216652], for which the inhibition at 10 µM is 83.4%.

`CC1(C)S[C@@H]2[C@H](NC(=O)Cc3ccccc3)C(=O)N2[C@H]1C(=O)O` [PCM-0214771]: the inhibition at 10 µM was -10.1%.

As for `O=C1C(N(CO)C(=O)NCO)N(CO)C(=O)N1CO` (stereo not drawn) [PCM-0216098], the inhibition at 10 µM was -5.4%.

Turning to `NC(=O)c1cccc(-c2cc(Nc3ccc(OC(F)(F)F)cc3)ncn2)c1` [PCM-0095363], the inhibition at 10 µM was -37.9%.

On to `COc1ccc2c(c1)c(C1=C(c3c[nH]c4ccccc34)C(=O)NC1=O)cn2CCCN(C)C` [PCM-0095393], for which the inhibition at 10 µM was found to be 24.8%.

Take `OC[C@@H](O)[C@@H](O)[C@H](O)[C@@H](O)CO` [PCM-0090796]: the inhibition at 10 µM was -19.5%.

`O=C(CCc1ccc(O)cc1)c1c(O)cc(O)cc1O` [PCM-0065552]: the inhibition at 10 µM stood at 15.2%.

Turning to `CC1(C)CC[C@]2(C(=O)O[C@@H]3O[C@H](CO[C@@H]4O[C@H](CO)[C@@H](O)[C@H](O)[C@H]4O)[C@@H](O)[C@H](O)[C@H]3O)CC[C@]3(C)C(=CC[C@@H]4[C@@]5(C)CC[C@H](O[C@@H]6OC[C@H](O)[C@H](O)[C@H]6O)[C@@](C)(CO)[C@@H]5CC[C@]43C)[C@@H]2C1` [PCM-0216172], the inhibition at 10 µM amounted to 13.9%.

Regarding `CC1(C)S[C@@H]2[C@H](NC(=O)[C@H](C(=O)O)c3ccsc3)C(=O)N2[C@H]1C(=O)O` [PCM-0214724], the inhibition at 10 µM is -1.6%.

In the case of `C[C@@H]1O[C@@H](OC[C@H]2O[C@@H](Oc3c(-c4ccc(O)c(O)c4)oc4cc(O)cc(O)c4c3=O)[C@H](O)[C@@H](O)[C@@H]2O)[C@H](O)[C@H](O)[C@H]1O` [PCM-0087529], the inhibition at 10 µM was -2.1%.

As to `CCN(CC)Cc1cc(Nc2ccnc3cc(Cl)ccc23)ccc1O` [PCM-0085909], the inhibition at 10 µM stood at 8.3%.

Turning to `CCN1CCCC1CNC(=O)c1cc(S(=O)(=O)CC)c(N)cc1OC` (stereo not drawn) [PCM-0064775], the inhibition at 10 µM worked out at 0.8%.

In the case of `CN(C)N(C)C(=O)[C@@]1(Cc2ccccc2)CCCN(C(=O)[C@@H](Cc2c[nH]c3ccccc23)NC(=O)C(C)(C)N)C1` [PCM-0215100], the inhibition at 10 µM amounted to 4.6%.

On to `Nc1nc2c(ncn2COC(CO)CO)c(=O)[nH]1` [PCM-0065253], for which the inhibition at 10 µM was -3.9%.

With `CN1C(CCl)Nc2cc(Cl)c(S(N)(=O)=O)cc2S1(=O)=O` (stereo not drawn) [PCM-0095604], the inhibition at 10 µM is -2.3%.

For the compound `OC(CNc1ccccc1)Cn1c2ccc(Br)cc2c2cc(Br)ccc21` (stereo not drawn) [PCM-0215533], the inhibition at 10 µM was 44.8%.

For the compound `COc1cc2c(cc1Cc1cccc(Cl)c1F)c(=O)c(C(=O)O)cn2[C@H](CO)C(C)C` [PCM-0095274], the inhibition at 10 µM is 31.9%.

As to `CC[C@@H](N)CNc1ccnc(-c2cc(-c3cnn(C)c3)ccc2O)n1` [PCM-0215825], the inhibition at 10 µM was determined as 2.8%.

For the compound `CCCOc1ccc2c(c1)CC[C@@H]1[C@@H]2CC[C@]2(C)[C@@H](OC)CC[C@@H]12` [PCM-0214906], the inhibition at 10 µM was -24.1%.

For `NC(=O)CCCSc1nc(N)nc(-c2c(Cl)cc3c4c(cccc24)COC3)n1` [PCM-0095776], the inhibition at 10 µM is -2.3%.

On to `CC(=O)OCC1=C[C@@H]2OC(=O)C3=CO[C@@H](O[C@@H]4O[C@H](CO)[C@@H](O)[C@H](O)[C@H]4O)[C@H]1[C@@H]32` [PCM-0216352], for which the inhibition at 10 µM was 10.8%.

`C=C1c2cccc(O)c2C(O)=C2C(=O)[C@]3(O)C(O)=C(C(N)=O)C(=O)[C@@H](N(C)C)[C@@H]3[C@@H](O)[C@H]12` [PCM-0215189]: the inhibition at 10 µM is 17%.

Take `CNNCc1ccc(C(=O)NC(C)C)cc1` [PCM-0086325]: the inhibition at 10 µM is -17.9%.

`COc1ccc2[nH]cc(/C=C3\C(=O)Nc4ccc(NC(=O)CCN5CCCCC5)cc43)c2c1` [PCM-0216653]: the inhibition at 10 µM came to 51.7%.

As to `CCO[C@H]1O[C@@H]2O[C@@]3(C)CC[C@H]4[C@H](C)CC[C@@H]([C@H]1C)[C@@]24OO3` [PCM-0214993], the inhibition at 10 µM is -16.3%.

Take `Cc1nc(NC(=O)N2CCC[C@H]2C(N)=O)sc1-c1csc(C(C)(C)C)n1` [PCM-0095518]: the inhibition at 10 µM amounted to 7.6%.

Take `O=C(Cn1nnc(-c2ccncc2)c1-c1ccccc1)Nc1ccc(-c2ccccc2)cn1` [PCM-0216012]: the inhibition at 10 µM came out at 39.4%.

In the case of `CCCCCCCCCCCCCCCCCCOP(=O)([O-])OC1CC[N+](C)(C)CC1` [PCM-0215183], the inhibition at 10 µM is -46.8%.

Take `COC1=C2C[C@@H](C)C[C@H](OC)[C@H](O)[C@@H](C)/C=C(\C)[C@H](OC(N)=O)[C@@H](OC)/C=C\C=C(/C)C(=O)NC(=CC1=O)C2=O` [PCM-0095416]: the inhibition at 10 µM amounted to 0%.

Take `CC[C@H]1OC(=O)[C@H](C)[C@@H](O[C@H]2C[C@@](C)(OC)[C@@H](O)[C@H](C)O2)[C@H](C)[C@@H](O[C@@H]2O[C@H](C)C[C@H](N(C)C)[C@H]2O)[C@](C)(O)C[C@@H](C)C(=O)[C@H](C)[C@@H](O)[C@]1(C)O` [PCM-0216070]: the inhibition at 10 µM was determined as 10%.

Regarding `CCCCc1oc2ccc(NS(C)(=O)=O)cc2c1C(=O)c1ccc(OCCCN(CCCC)CCCC)cc1` [PCM-0095292], the inhibition at 10 µM turned out to be 62.3%.

Regarding `CCCN1CCO[C@@H]2c3cc(O)ccc3OC[C@H]21` [PCM-0095211], the inhibition at 10 µM is -8.6%.

`CCOC(=O)/C=C\C(=O)OCC` [PCM-0215691]: the inhibition at 10 µM is 10.1%.

For `CN(C)C(=O)CCSC(SCCC(=O)O)c1cccc(/C=C/c2ccc3ccc(Cl)cc3n2)c1` (stereo not drawn) [PCM-0215726], the inhibition at 10 µM worked out at 10.8%.

For the compound `C=CC(=O)Nc1ccc2ncnc(Nc3cccc(Br)c3)c2c1` [PCM-0095572], the inhibition at 10 µM was determined as 106%.

As for `Cc1nc2ccc(-n3ncc(C(=O)c4cc5ccccc5[nH]4)c3N)cc2[nH]1` [PCM-0215439], the inhibition at 10 µM worked out at 44.8%.

Turning to `Nc1nc2ccc(OC(F)(F)F)cc2s1` [PCM-0065440], the inhibition at 10 µM is -10.1%.
